Earlier results, collected in US20240401150A1, “PANCREATIC DUCTAL ADENOCARCINOMA SIGNATURES AND USES THEREOF” (The Broad Institute, Inc., priority 2022, published 2024).

Key:
CXCR4 = CXCR4 (Homo sapiens, UniProt P61073); details: literature (ref 133)
[1] = tested on: intra-tumoral cytotoxic T cells; details: previously identified (refs 20, 61)

Chain of CXCR4 (P61073 whole entry): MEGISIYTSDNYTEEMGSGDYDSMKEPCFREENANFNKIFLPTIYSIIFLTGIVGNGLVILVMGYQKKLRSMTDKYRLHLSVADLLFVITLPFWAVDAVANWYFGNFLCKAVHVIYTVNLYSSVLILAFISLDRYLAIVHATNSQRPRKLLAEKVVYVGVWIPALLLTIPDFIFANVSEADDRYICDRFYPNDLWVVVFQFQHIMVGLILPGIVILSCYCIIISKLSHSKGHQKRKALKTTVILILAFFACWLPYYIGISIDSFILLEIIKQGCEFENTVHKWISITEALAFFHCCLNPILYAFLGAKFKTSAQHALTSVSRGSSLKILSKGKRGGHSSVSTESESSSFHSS

effect of clinical inhibition of CXCR4 (CXCR4) | Structure (SMILES) | intra-tumoral cytotoxic T cell activity [1]
integrated immune response^133 | c1cc(CN2CCCNCCNCCCNCC2)ccc1CN1CCCNCCNCCCNCC1 [AMD3100] | 
 | CCCCc1nc(Cl)c(CO)n1Cc1ccc(-c2ccccc2-c2nn[nH]n2)cc1 [losartan] | increase
